Data taken from patent publication US11279687B2, “Compounds and compositions for the inhibition of NAMPT” (Valo Health, Inc., priority 2010, dated 2022).
Where two headings read alike, the source gives them in different places.

Columns and labels:
A2780 cells = assay: In-vitro cell proliferation assay (SRB), A2780 cells; format: cell-based; details: A2780 cells, 72 hours, SRB, read-out: A2780 IC50;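 note: viable cell number read as SRB absorbance, background from media-only wells subtracted, IC50 interpolated from percent inhibition at two bracketing compound concentrations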
NAMPT = NAMPT (Homo sapiens (Human), UniProt P43490); assay: NAMPT biochemical inhibition assay (NMN quantified by mass spectrometry)
[1] = NAMPT biochemical inhibition, read-out: Biochem IC50

Sequence of NAMPT (P43490 whole entry): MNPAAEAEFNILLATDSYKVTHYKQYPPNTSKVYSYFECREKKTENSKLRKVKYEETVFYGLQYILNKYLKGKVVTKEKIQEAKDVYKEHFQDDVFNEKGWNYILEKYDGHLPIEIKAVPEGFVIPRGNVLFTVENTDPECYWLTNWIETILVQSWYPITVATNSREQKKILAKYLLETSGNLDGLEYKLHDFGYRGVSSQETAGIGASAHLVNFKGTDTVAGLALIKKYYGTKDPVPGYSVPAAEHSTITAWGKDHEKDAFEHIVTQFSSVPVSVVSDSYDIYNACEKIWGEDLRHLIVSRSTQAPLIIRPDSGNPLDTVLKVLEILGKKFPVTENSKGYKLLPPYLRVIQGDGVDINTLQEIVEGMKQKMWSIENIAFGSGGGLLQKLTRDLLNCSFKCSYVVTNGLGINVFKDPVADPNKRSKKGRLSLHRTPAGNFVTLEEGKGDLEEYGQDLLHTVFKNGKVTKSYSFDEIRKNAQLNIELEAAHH

IC50 (A2780 cells; Homo sapiens, A2780, 72 h) | IC50 (NAMPT; [1]) | SMILES | IC50 (NAMPT) | IC50 (A2780 cells)
54 nM | 4 nM | O=C(NCc1cccnc1)Nc1ccc(S(=O)(=O)Nc2ccc(N3CCCCC3)cc2)cc1 [1-(4-{[4-(piperidin-1-yl)phenyl]sulfamoyl}phenyl)-3-(pyridin-3-ylmethyl)urea] |  | 
7 nM | 1.2 nM | O=C(NCc1cccnc1)Nc1ccc(S(=O)(=O)Nc2ccccc2OC(F)(F)F)cc1 [1-(pyridin-3-ylmethyl)-3-(4-{[2-(trifluoromethoxy)phenyl]sulfamoyl}phenyl)urea] |  | 
569 nM | 3 nM | O=C(NCc1cccnc1)Nc1ccc(S(=O)(=O)c2ccccc2C(F)(F)F)cc1 [1-(pyridin-3-ylmethyl)-3-(4-{[2-(trifluoromethyl)benzene]sulfonyl}phenyl)urea] |  | 
83 nM | 1 nM | O=C(NCc1cccnc1)Nc1ccc(S(=O)(=O)c2cccc(OC(F)(F)F)c2)cc1 [1-(pyridin-3-ylmethyl)-3-(4-{[3-(trifluoromethoxy)benzene]sulfonyl}phenyl)urea] |  | 
420 nM | 5 nM | O=C(NCc1cccnc1)Nc1ccc(S(=O)(=O)c2ccc(OC(F)(F)F)cc2)cc1 [1-(pyridin-3-ylmethyl)-3-(4-{[4-(trifluoromethoxy)benzene]sulfonyl}phenyl)urea] |  | 
604 nM | 9 nM | O=C(NCc1cccnc1)Nc1ccc(S(=O)(=O)c2ccc(C(F)(F)F)cc2)cc1 [1-(pyridin-3-ylmethyl)-3-(4-{[4-(trifluoromethyl)benzene]sulfonyl}phenyl)urea] |  | 
91 nM | 80 nM | C[C@@H]1[C@H]2C[C@@H](C[C@H]1NS(=O)(=O)c1ccc(NC(=O)NCc3cccnc3)cc1)C2(C)C [1-(pyridin-3-ylmethyl)-3-(4-{[(1R,2R,3R,5S)-2,6,6-trimethylbicyclo[3.1.1]heptan-3-yl]sulfamoyl}phenyl)urea] |  | 
1790 nM | 19 nM | O=C(NCc1cccnc1)Nc1ccc(S(=O)(=O)n2cccc2)cc1 [1-(pyridin-3-ylmethyl)-3-[4-(1H-pyrrole-1-sulfonyl)phenyl]urea] |  | 
9.2 nM | 2 nM | CC1CCN(S(=O)(=O)c2ccc(NC(=O)NCc3cccnc3)cc2)CC(C)(C)C1 (stereo not drawn) [1-(pyridin-3-ylmethyl)-3-[4-(3,3,5-trimethylazepane-1-sulfonyl)phenyl]urea] |  | 
10000 nM | 226 nM | O=C(NCc1cccnc1)Nc1ccc(S(=O)(=O)C(F)(F)F)cc1 [1-(pyridin-3-ylmethyl)-3-[4-(trifluoromethane)sulfonylphenyl]urea] |  | 
26 nM | 3 nM | O=C(NCc1cccnc1)Nc1ccc(S(=O)(=O)N2CCCC(C(F)(F)F)C2)cc1 (stereo not drawn) [1-(pyridin-3-ylmethyl)-3-{4-[3-(trifluoromethyl)piperidine-1-sulfonyl]phenyl}urea] |  | 
1000 to 10000 nM | 27.9 nM | O=C(NCc1cccnc1)Nc1ccc(S(=O)(=O)c2ccc(C(F)(F)F)nc2)cc1 [1-(pyridin-3-ylmethyl)-3-{4-[6-(trifluoromethyl)pyridine-3-sulfonyl]phenyl}urea] |  | 
> 1000 nM | 11 nM | Cc1cc(C)c(S(=O)(=O)c2ccc(NC(=O)NCc3cccnc3)cc2)c(C)c1 [1-(pyridin-3-ylmethyl)-3-{4-[(2,4,6-trimethylbenzene)sulfonyl]phenyl}urea] |  | 
100 to 1000 nM | 3.8 nM | NS(=O)(=O)c1cccc(S(=O)(=O)c2ccc(NC(=O)NCc3cccnc3)cc2)c1 [1-(pyridin-3-ylmethyl)-3-{4-[(3-sulfamoylbenzene)sulfonyl]phenyl}urea] |  | 
29 nM | 3 nM | O=C(NCc1cccnc1)Nc1ccc(S(=O)(=O)N2CCC[C@H](C(F)(F)F)C2)cc1 [1-(pyridin-3-ylmethyl)-3-{4-[(3S)-3-(trifluoromethyl)piperidine-1-sulfonyl]phenyl}urea] |  | 
13.4 nM | 1.6 nM | O=C(NCc1cccnc1)Nc1ccc(S(=O)(=O)c2cccc3[nH]ccc23)cc1 [1-[4-(1H-indole-4-sulfonyl)phenyl]-3-(pyridin-3-ylmethyl)urea] |  | 
3.4 nM | 0.5 nM | O=C(NCc1cccnc1)Nc1ccc(S(=O)(=O)c2cccc3cc[nH]c23)cc1 [1-[4-(1H-indole-7-sulfonyl)phenyl]-3-(pyridin-3-ylmethyl)urea] |  | 
100 to 1000 nM | 1.1 nM | O=C(NCc1cccnc1)Nc1ccc(S(=O)(=O)c2ccc3c(c2)OCCO3)cc1 [1-[4-(2,3-dihydro-1,4-benzodioxine-6-sulfonyl)phenyl]-3-(pyridin-3-ylmethyl)urea] |  | 
10.5 nM | 1.1 nM | O=C(NCc1cccnc1)Nc1ccc(S(=O)(=O)c2cccc3c2OCC3)cc1 [1-[4-(2,3-dihydro-1-benzofuran-7-sulfonyl)phenyl]-3-(pyridin-3-ylmethyl)urea] |  | 
164 nM | 11 nM | CC1CCCC(C)N1S(=O)(=O)c1ccc(NC(=O)NCc2cccnc2)cc1 (stereo not drawn) [1-[4-(2,6-dimethylpiperidine-1-sulfonyl)phenyl]-3-(pyridin-3-ylmethyl)urea] |  | 
100 to 1000 nM | 4.3 nM | O=C(NCc1cccnc1)Nc1ccc(S(=O)(=O)c2cccc3c2OCO3)cc1 [1-[4-(2H-1,3-benzodioxole-4-sulfonyl)phenyl]-3-(pyridin-3-ylmethyl)urea] |  | 

Further lines, the molecule ahead of its results:

SMILES | IC50 (A2780 cells; Homo sapiens, A2780, 72 h) | IC50 (NAMPT; [1]) | IC50 (NAMPT) | IC50 (A2780 cells)
O=C(NCc1cccnc1)Nc1ccc(S(=O)(=O)N2CCN(CC(=O)N3CCOCC3)CC2)cc1 [1-(4-{4-[2-(morpholin-4-yl)-2-oxoethyl]piperazine-1-sulfonyl}phenyl)-3-(pyridin-3-ylmethyl)urea] | 135 nM | 4 nM |  | 
O=C(NCc1cccnc1)Nc1ccc(S(=O)(=O)N2CCN(CC(=O)N3CCCCC3)CC2)cc1 [1-(4-{4-[2-oxo-2-(piperidin-1-yl)ethyl]piperazine-1-sulfonyl}phenyl)-3-(pyridin-3-ylmethyl)urea] | 21 nM | 9 nM |  | 
O=C(NCc1cccnc1)Nc1ccc(S(=O)(=O)N2CCN(CC(=O)N3CCCC3)CC2)cc1 [1-(4-{4-[2-oxo-2-(pyrrolidin-1-yl)ethyl]piperazine-1-sulfonyl}phenyl)-3-(pyridin-3-ylmethyl)urea] | 99 nM | 4 nM |  | 
O=C(NCc1cccnc1)Nc1ccc(S(=O)(=O)N2CCN(CCCN3CCOCC3)CC2)cc1 [1-(4-{4-[3-(morpholin-4-yl)propyl]piperazine-1-sulfonyl}phenyl)-3-(pyridin-3-ylmethyl)urea] | 24 nM | 3 nM |  | 
O=C(NCc1cccnc1)Nc1ccc(S(=O)(=O)N2CCC(CN3CCCC3=O)CC2)cc1 [1-(4-{4-[(2-oxopyrrolidin-1-yl)methyl]piperidine-1-sulfonyl}phenyl)-3-(pyridin-3-ylmethyl)urea] | 78 nM | 2 nM |  | 
O=C(NCc1cccnc1)Nc1ccc(S(=O)(=O)N2CCN(C(=O)c3ccco3)CC2)cc1 [1-(4-{4-[(furan-2-yl)carbonyl]piperazine-1-sulfonyl}phenyl)-3-(pyridin-3-ylmethyl)urea] | 168 nM | 4 nM |  | 
O=C(NCc1cccnc1)Nc1ccc(S(=O)(=O)N2C3CCCC2CC3)cc1 [1-(4-{8-azabicyclo[3.2.1]octane-8-sulfonyl}phenyl)-3-(pyridin-3-ylmethyl)urea] | 64 nM |  | 4 nM | 
O=C(NCc1cccnc1)Nc1ccc(S(=O)(=O)N2CCC3(CCCC3)CC2)cc1 [1-(4-{8-azaspiro[4.5]decane-8-sulfonyl}phenyl)-3-(pyridin-3-ylmethyl)urea] | 343 nM | 4 nM |  | 
O=C(NCc1cccnc1)Nc1ccc(S(=O)(=O)c2cccc3c2oc2ccccc23)cc1 [1-(4-{8-oxatricyclo[7.4.0.0^2,^7]trideca-1(9),2(7),3,5,10,12-hexaene-6-sulfonyl}phenyl)-3-(pyridin-3-ylmethyl)urea] |  | 2 nM |  | 3 nM
O=C(NCc1cccnc1)Nc1ccc(S(=O)(=O)Nc2ccccc2N2CCOCC2)cc1 [1-(4-{[2-(morpholin-4-yl)phenyl]sulfamoyl}phenyl)-3-(pyridin-3-ylmethyl)urea] | 11 nM | 5 nM |  | 
O=C(NCc1cccnc1)Nc1ccc(S(=O)(=O)c2ccccc2CN2CCOCC2)cc1 [1-(4-{[2-(morpholin-4-ylmethyl)benzene]sulfonyl}phenyl)-3-(pyridin-3-ylmethyl)urea] | 7.9 nM | 3.6 nM |  | 
O=C(NCc1cccnc1)Nc1ccc(S(=O)(=O)Nc2ccccc2N2CCCCC2)cc1 [1-(4-{[2-(piperidin-1-yl)phenyl]sulfamoyl}phenyl)-3-(pyridin-3-ylmethyl)urea] | 18 nM | 4 nM |  | 
O=C(NCc1cccnc1)Nc1ccc(S(=O)(=O)c2cccc(-n3cccn3)c2)cc1 [1-(4-{[3-(1H-pyrazol-1-yl)benzene]sulfonyl}phenyl)-3-(pyridin-3-ylmethyl)urea] | 98 nM | 2.2 nM |  | 
O=C(NCc1cccnc1)Nc1ccc(S(=O)(=O)c2cccc(OCC3CC3)c2)cc1 [1-(4-{[3-(cyclopropylmethoxy)benzene]sulfonyl}phenyl)-3-(pyridin-3-ylmethyl)urea] | 100 to 1000 nM | 8.6 nM |  | 
O=C(NCc1cccnc1)Nc1ccc(S(=O)(=O)Nc2cccc(N3CCOCC3)c2)cc1 [1-(4-{[3-(morpholin-4-yl)phenyl]sulfamoyl}phenyl)-3-(pyridin-3-ylmethyl)urea] | 103 nM | 6 nM |  | 
O=C(NCc1cccnc1)Nc1ccc(S(=O)(=O)c2ccc(-n3cccn3)cc2)cc1 [1-(4-{[4-(1H-pyrazol-1-yl)benzene]sulfonyl}phenyl)-3-(pyridin-3-ylmethyl)urea] | 55 nM | 5.5 nM |  | 
O=C(NCc1cccnc1)Nc1ccc(S(=O)(=O)c2ccc(N3CCOCC3)cc2)cc1 [1-(4-{[4-(morpholin-4-yl)benzene]sulfonyl}phenyl)-3-(pyridin-3-ylmethyl)urea] | 14.7 nM | 1.8 nM |  | 
O=C(NCc1cccnc1)Nc1ccc(S(=O)(=O)Nc2ccc(N3CCOCC3)cc2)cc1 [1-(4-{[4-(morpholin-4-yl)phenyl]sulfamoyl}phenyl)-3-(pyridin-3-ylmethyl)urea] | 173 nM | 5 nM |  | 
